Reference: US5698544A, “Cephem compound, process for producing the compound, and antimicrobial composition containing the same” (Otsuka Kagaku Kabushiki Kaisha, priority 1994, dated 1997)
In brackets after ≈: the same amount, converted by molar mass.

Legend:
MRSA 92-1044 = assay: Agar plate dilution assay (MIC), MRSA 92-1044; format: cell-based, methicillin-resistant Staphylococcus aureus; settings: Staphylococcus aureus, inoculum size 10^6 cells/ml
E. coli NIHJ JC-2 = assay: Agar plate dilution assay (MIC), E. coli NIHJ JC-2; format: cell-based; settings: Escherichia coli, NIHJJC2, inoculum size 10^6 cells/ml
S. marcescens IFO-12648 = assay: Agar plate dilution assay (MIC), S. marcescens IFO-12648; format: cell-based; settings: Serratia marcescens, IFO12648, inoculum size 10^6 cells/ml
S. aureus FDA 209-P = assay: Agar plate dilution assay (MIC), S. aureus FDA 209-P; format: cell-based; settings: Staphylococcus aureus, FDA209, inoculum size 10^6 cells/ml
E. faecalis ATCC-21212 = assay: Agar plate dilution assay (MIC), E. faecalis ATCC-21212; format: cell-based; settings: Enterococcus faecalis, ATCC21212, inoculum size 10^6 cells/ml

SMILES	MIC (MRSA 92-1044) [mg/L]	MIC (E. coli NIHJ JC-2) [mg/L]	MIC (S. marcescens IFO-12648) [mg/L]	MIC (S. aureus FDA 209-P) [mg/L]	MIC (E. faecalis ATCC-21212) [mg/L]
C[N+](C)(C)CC[n+]1ccc(SC=CC2=C(C(=O)O)N3C(=O)C(NC(=O)C(=NOC4CCCC4)c4csc(N)n4)C3SC2)cc1 (centres unmarked) [(a)]	6.25	0.39	3.13	0.39	0.39
CO[C@@]1(NC(=O)CSC(F)F)C(=O)N2C(C(=O)O)=C(CSc3nnnn3CCO)CO[C@@H]21 [FMOX, flomoxef, reference compound]	> 100	0.05 (≈ 0.101 µM)	0.2 (≈ 0.403 µM)	0.2 (≈ 0.403 µM)	100 (≈ 201 µM)
CC(=O)C[N+](C)(C)CC[n+]1ccc(SC=CC2=C(C(=O)O)N3C(=O)C(NC(=O)C(=NO)c4csc(N)n4)C3SC2)cc1 (centres unmarked) [(d)]	1.56	0.025	0.2	0.2	0.2
C[N+](C)(CCO)CC[n+]1ccc(SC=CC2=C(C(=O)O)N3C(=O)C(NC(=O)C(=NO)c4csc(N)n4)C3SC2)cc1 (centres unmarked) [(e)]	1.56	0.05	0.1	0.1	0.1

Continued, values first:

MIC (MRSA 92-1044) [mg/L]	MIC (E. coli NIHJ JC-2) [mg/L]	MIC (S. marcescens IFO-12648) [mg/L]	MIC (S. aureus FDA 209-P) [mg/L]	MIC (E. faecalis ATCC-21212) [mg/L]	SMILES
1.56	0.025	0.1	0.1	0.2	C[N+]1(CC[n+]2ccc(SC=CC3=C(C(=O)O)N4C(=O)C(NC(=O)C(=NO)c5csc(N)n5)C4SC3)cc2)CCOCC1 (centres unmarked) [(f)]
1.56	0.025	0.1	0.1	0.1	C[N+](C)(CC[n+]1ccc(SC=CC2=C(C(=O)O)N3C(=O)C(NC(=O)C(=NO)c4csc(N)n4)C3SC2)cc1)CC(N)=O (centres unmarked) [(c)]
1.56	0.05	0.1	0.1	0.1	C[N+](C)(C)CC[n+]1ccc(SC=CC2=C(C(=O)O)N3C(=O)C(NC(=O)C(=NO)c4csc(N)n4)C3SC2)cc1 (centres unmarked) [(b)]
